108 compounds from a melting point compilation (Tetko et al.) can be followed below.

Regarding `[O-][P+](c1ccccc1)(c1ccccc1)C1Sc2ccccc2S1`, the melting point (in general, the temperature, or range, at which the solid turns liquid) was determined as 181 °C. Under `O=C(C1=NOC2C(=O)N(c3ccc(O)cc3)C(=O)C12)c1ccccc1` (stereo not drawn) stands 99 °C; under `CCOC(=O)C1CSCCN1` (stereo not drawn), 118 to 121 °C. Under `CC(=O)c1ccc(S(=O)(=O)NC(=O)NC2CCCCC2)cc1` stands 188 °C. Under `NC(=O)C1CCN(c2nccc(C(F)(F)F)n2)CC1` stands 194 to 196 °C; under `Cc1cc(C)c(CC(=O)c2cc3ccccc3o2)c(C)c1`, 172 to 173 °C; under `COc1ccc(OC2OC(CO)C(O)C(O)C2O)cc1` (stereo not drawn), 159 °C. `Cc1nc(N)nc(O)n1` returned a melting point of 300 °C. Under `CSc1nc2cc(N=Cc3ccc(F)cc3)ccc2[nH]1` stands 174 to 175 °C; under `O=C(O)c1ccc(-c2ccco2)s1`, 187 to 188 °C; under `CCCCCCC(O)C1C2=C(CC(C(O)C3CC=CC(=O)O3)CC3=C(C(=O)OC3=O)C1O)C(=O)OC2=O` (stereo not drawn), 170 °C.

In the case of `O=C1c2ccccc2C(=O)N1c1n[nH]c2ccccc12`, the melting point was in the range of 239 to 241 °C. Regarding `CC(C)(C)S(=O)(=O)CC(N)=S`, the melting point is 184 to 186 °C.

`Cc1ccc2cc(CBr)ccc2n1` gave a melting point of 93 to 94 °C. `Cn1c(C(=O)O)ccc1S(N)(=O)=O` had a melting point of 210 to 212 °C.

`COc1ccc[nH]c1=O` returned a melting point of 115 °C. Consider `CCOC(=O)c1c(-c2ccc(Br)cc2)csc1N`, for which the melting point lay in the range of 120 to 122 °C.

As to `CC(=O)OC1CCC2(C)C(CCC3C4CC=C(C#Cc5ccccc5)C4(C)CCC32)C1` (stereo not drawn), the melting point was 152 to 153 °C. Under `CCCCCCCCCCCCCCCCCc1ccccc1` stands 32 °C. Under `CC(=O)Oc1cc2c(cc1Cl)C1(OC(=O)c3ccccc31)c1cc(Cl)c(OC(C)=O)cc1O2` stands 239 to 246 °C; under `CCOC(=O)c1c(NC(=S)Nc2ccccc2)sc2c1CCCC2`, 189 to 191 °C; under `O=Cc1ccc(C#Cc2ccccc2)s1`, 91 °C. Under `Cc1ccc(NC=CC(=O)c2ccc3c(c2)CCCC3)cc1` stands 139 °C; under `CCOC(=O)Cn1cc(Cl)c(=O)c(Cl)c1`, 209 to 211 °C; under `Cn1ncc2c(NCCOC(=O)c3cc([N+](=O)[O-])cc([N+](=O)[O-])c3)ncnc21`, 299 °C.

Compound `CN(Cc1cc(Br)cc(Br)c1N)C1CCCCC1` showed a melting point of 238 °C. For `Nc1ccc(OCCCCCN2C(=O)c3ccccc3C2=O)cc1`, the melting point came out at 113 °C. Under `C(=Nc1ccccc1)=Nc1ccccc1` stands 169 °C.

In turn, `COc1cc(S(C)=O)ccc1-c1nc2ncccc2[nH]1` (stereo not drawn) displayed a melting point of 204 °C. For `c1ccc2nnccc2c1`, the melting point came out at 38 °C. Under `O=C(O)Cc1cccs1` stands 63 °C.

`C#CC#C`: the melting point was -36.4 °C. Under `O=C(O)Cc1cc(I)c(Oc2ccc(O)c(I)c2)c(I)c1` stands 182 °C. Under `CCN(CC)c1ccc2nc3c4ccccc4c(=O)cc-3oc2c1` stands 203 to 205 °C.

With `CC(C)NC(=O)CN1CCNCC1`, the melting point fell in the range of 82 to 88 °C. Under `CSCc1ccccc1` stands -28 °C; under `CC12CCC(C(=O)C(Br)(Br)C1=O)C2(C)C` (stereo not drawn), 155 °C; under `CC(O)CCc1ccc2c(c1)NC(C)CC2` (stereo not drawn), 79 °C. Under `CC1CCCCC1NC(=O)Nc1ccccc1` (stereo not drawn) stands 136 °C; under `O=Cc1cc([N+](=O)[O-])cc(Br)c1O`, 149 °C; under `O=C1OC(=O)C23Cc4ccccc4CC12Cc1ccccc1C3` (stereo not drawn), 267 to 270 °C.

For `Cc1ccc(N=Nc2ccccc2)cc1`, the melting point came to 71.5 °C. Under `CC(=O)C1=CCCCC1` stands 73 °C; under `NS(=O)(=O)c1cccc(Cl)c1Cl`, 220 °C. Consider `O=C1Cc2cc3c(cc21)CC3=O`, for which the melting point was found to be 237 °C. Compound `COc1ccc(OC)c2c1CC2=O` showed a melting point of 105 °C. Under `COc1ccc([N+](=O)[O-])cc1C(=O)O` stands 157 °C; under `O=C(NCCCCCCO)OCC1c2ccccc2-c2ccccc21`, 119 to 120 °C.

The compound `CCCCNC(=O)n1cc(F)c(=O)[nH]c1=O` came in with a melting point of 136 °C. Consider `NC(=C(N)c1ccccc1)c1ccccc1`, for which the melting point was found to be 108 °C. Under `Nc1ncnc2c1ncn2C1CC(O)C(CO)O1` (stereo not drawn) stands 185 to 187 °C; under `Cn1cncc1C(=O)NN`, 186 to 187 °C. Under `CC(C)CCCC(C)C1CCC2(C)C1(C)CCC13OC21CCC1C(C)C(O)CCC13C` (stereo not drawn) stands 161 to 163 °C.

With `Cc1ccccc1/C=C(/C#N)c1nc2ccccc2c(=O)[nH]1`, the melting point is 258 °C. Under `Nc1ccn(C2OC(COP(=O)(O)O)C(O)C2O)c(=O)n1` (stereo not drawn) stands 233 °C; under `CC(NC(=O)CCCCN1C(=O)c2ccccc2C1=O)[P+]([O-])(Oc1ccccc1)Oc1ccccc1` (stereo not drawn), 144 °C; under `CSc1ccc(N=C=S)cc1`, 50 °C. Under `CC(C)(C)OC(=O)N[C@@H](CCC(=O)O)C(=O)O` stands 110 to 113 °C. Under `Cc1c(C)c(C)c(CO)c(C)c1C` stands 159 to 163 °C; under `NC(=O)c1nn(-c2ccccc2)c2ncnc(N)c12`, 295 °C; under `O=[N+]([O-])c1ccccc1SCl`, 74 °C. `CCOc1cccc(C(=O)NN)c1` registered a melting point of 102 °C. Under `N#Cc1cc([N+](=O)[O-])ccc1F` stands 73 to 74 °C.

`CN(C(=O)C(C(F)(F)F)C(F)(F)F)C1CCCCC1`: the melting point came to 169 °C. Under `O=C(C(=O)c1cc(Br)ccc1O)c1cc(Br)ccc1O` stands 212 °C. Under `C(#Cc1ccc(CCc2ccccc2)cc1)c1ccccc1` stands 105 °C. Under `CCOC(=O)c1cc2cccc([N+](=O)[O-])c2[nH]1` stands 90 to 96 °C; under `CC(=O)Nc1ccc(C(F)(F)F)cc1N`, 141 to 143 °C.

Take `CN(C)c1ccc(C#N)cc1`: the melting point is 74 °C. Under `CC(CO)CO` stands -91 °C. Under `CSC(C)=NOC(=O)N(C)SN(C)C(=O)ON=C(C)SC` stands 173 °C. Under `Cn1ncc2c(NNC3=CC(=O)c4ccccc4C3=O)ncnc21` stands 226 °C; under `C=CCc1cc2c(c(OC)c1OC)OCO2`, 29.5 °C; under `CC(=O)C(=CN)Cc1ccccc1`, 95 °C. In turn, `NC1C2CCC(C2)C1C(=O)O` (stereo not drawn) displayed a melting point of 275 to 278 °C.

`COc1cc(OC)c(Cl)cc1N`: the melting point fell in the range of 89 to 92 °C. Under `CC(C)NC(=O)N1CC(=O)N(c2cc(Cl)cc(Cl)c2)C1=O` stands 136 °C; under `O=C1OC(=O)c2ccc(Cl)c3cccc1c23`, 207 to 210 °C. Take `CCCc1cc(C)cc(C)c1`: the melting point is -59 °C. Take `N#Cc1c(-c2ccc(Cl)cc2)n[nH]c1N`: the melting point is 216 to 217 °C.

For `CON=O`, the melting point is -16 °C. Under `C[Si](C)(C)C#Cc1ccc(C#C[Si](C)(C)C)cc1` stands 120 °C; under `O=C(CCCN1CCC(n2c(=O)[nH]c3ccccc32)CC1)c1ccc(F)cc1`, 170 °C. Under `O=C(NCCc1cc([N+](=O)[O-])c(CCNC(=O)c2ccccc2)c([N+](=O)[O-])c1)c1ccccc1` stands 217 °C; under `COc1ccc(Br)cc1/C=c1\sc2nc3ccccc3n2c1=O`, 250 to 252 °C; under `CC1(/C(=N\Nc2ccc([N+](=O)[O-])cc2[N+](=O)[O-])C(=O)O)CCC(C(=O)O)C1(C)C` (stereo not drawn), 191 °C. Under `CCC(O)(CC)C1(C)CCC(C(=O)OC)C(C)(C)O1` (stereo not drawn) stands 162 °C; under `CC(SCc1ccccc1)C(=O)O` (stereo not drawn), 79 to 81 °C. In turn, `COc1ccc(-c2csc(/C(C#N)=N\Nc3ccncc3)n2)cc1` came in with a melting point of 255 °C. Under `Cn1ccc2c(C(=O)O)cccc21` stands 243 to 245 °C; under `CC(Nc1ccc(Br)cn1)=C(C#N)C(=O)c1ccccc1`, 179 to 181 °C; under `COC(=O)CSc1cc(C(F)(F)F)nc2ccccc12`, 96 to 98 °C. Under `CCCN(CCOc1c(Cl)cc(Cl)cc1Cl)C(=O)n1ccnc1` stands 48.3 °C; under `COc1ccccc1C`, -34.1 °C; under `CCCCNC(=O)CC#N`, 54 to 55 °C. Under `Cc1ccc(S(=O)(=O)c2ncsc2SCC(N)=O)cc1` stands 204 to 206 °C; under `COC(=O)C1CCC(C)(C(O)(c2ccccc2)c2ccccc2)OC1(C)C` (stereo not drawn), 91 °C; under `O=C(O)c1ccc2c(c1)OCCO2`, 133 to 137 °C. In the case of `O=C(Nc1ccc([N+](=O)[O-])cc1[N+](=O)[O-])C(F)(F)C(F)(F)C(F)(F)C(F)(F)C(F)(F)C(F)(F)C(F)(F)C(F)(F)F`, the melting point worked out at 125 °C. Under `NNc1ccc(Cl)nn1` stands 137 °C. Under `COC(=O)CS` stands -3 °C; under `Cn1c(=O)c2c(ncn2CCCl)n(C)c1=O`, 122 to 127 °C. Compound `O=CC(Br)=C(Br)C(=O)O` registered a melting point of 123 °C. In turn, `COc1ccc(-c2nn3c(C)nnc3s2)cc1` returned a melting point of 177 °C. Under `O=C(c1ccc(Cl)cc1)c1noc(-c2ccc(Br)cc2)c1S(=O)(=O)c1ccccc1` stands 125 °C. Under `NNC(=O)C(O)c1ccccc1` (stereo not drawn) stands 130 °C; under `CCNC(=O)COC(=O)c1ccccc1`, 106 °C. Under `O=C(O)C1(c2ccccc2)CC1` stands 87 °C.
